Source: patent US20080090805A1, “CB-1 MODULATING COMPOUNDS AND THEIR USE” (ACADIA PHARMACEUTICALS INC., priority 2005, published 2008)

system: NSA mice; test: Hypothermia study (block of CP 55,940-induced hypothermia); format: in vivo; set-up: Hypothermia 3 mg/kg / Hypothermia 0.3 mg/kg: unit not given here; settings: 0.3 mg/kg
Experimental: . […] Core body temperatures were then obtained at various time points following CP 55,940 administration. Core body temperature (to the nearest 0.1° C.) was obtained by rectal probe.

SMILES	Hypothermia 0.3 mg/kg
O=C(NCc1cccc(Cl)c1)c1ccc2c(c1)N=C(c1ccc(F)cc1)c1ccccc1S2 [drawing 1618]	16
CCCCNC(=O)c1ccc2c(c1)N=C(c1ccc(Cl)s1)c1ccccc1S2 [drawing 1568]	12
O=C(NCc1cccnc1)c1ccc2c(c1)N=C(c1ccc(Cl)c(Cl)c1)c1ccccc1S2 [drawing 1565]	1
CC(C)CNC(=O)c1ccc2c(c1)N=C(c1ccc(F)cc1)c1ccccc1S2 [drawing 1636]	14
O=C(NCCCC(F)(F)F)c1ccc2c(c1)N=C(c1ccc(Cl)cc1F)c1ccccc1S2 [drawing 1552]	24
O=C(NC1CCCCC1)c1ccc2c(c1)N=C(c1ccc(F)cc1)c1ccccc1S2 [drawing 1580]	28
O=C(NCCCC(F)(F)F)c1ccc2c(c1)N=C(c1cccc(F)c1)c1ccccc1S2 [drawing 1606]	11
O=C(NCc1ccc(F)cc1)c1ccc2c(c1)N=C(c1ccc(Cl)cc1)c1ccccc1S2 [drawing 1630]	18

same assay, conditions: 3 mg/kg

SMILES	Hypothermia 3 mg/kg
O=C(NCc1ccccc1)c1ccc2c(c1)N=C(c1ccc(Cl)cc1)c1ccccc1S2 [drawing 1648]	68
C[C@@H]1CCC[C@H](C)N1NC(=O)c1ccc2c(c1)N=C(c1cccc(F)c1)c1ccccc1S2 [drawing 1635]	17
O=C(NCc1cccc(Cl)c1)c1ccc2c(c1)N=C(c1ccc(F)cc1)c1ccccc1S2 [drawing 1618]	50
CCCCNC(=O)c1ccc2c(c1)N=C(c1ccc(Cl)s1)c1ccccc1S2 [drawing 1568]	53
Cc1ccsc1C1=Nc2cc(C(=O)NCCCC(F)(F)F)ccc2Sc2ccccc21 [drawing 1598]	24
O=C(NCc1cccnc1)c1ccc2c(c1)N=C(c1ccc(Cl)c(Cl)c1)c1ccccc1S2 [drawing 1565]	19
CC(C)CNC(=O)c1ccc2c(c1)N=C(c1ccc(F)cc1)c1ccccc1S2 [drawing 1636]	53
CCCCNC(=O)c1ccc2c(c1)N=C(c1ccc(F)c(Cl)c1)c1ccccc1S2	94
O=C(NCCCC(F)(F)F)c1ccc2c(c1)N=C(c1ccc(Cl)cc1F)c1ccccc1S2 [drawing 1552]	55
O=C(NCc1cccs1)c1ccc2c(c1)N=C(c1ccc(Cl)cc1)c1ccccc1S2 [drawing 1628]	92
CCCCNC(=O)c1ccc2c(c1)N=C(c1cccc(Cl)c1)c1cc(F)ccc1S2 [drawing 1579]	8
O=C(NC1CCCCC1)c1ccc2c(c1)N=C(c1ccc(F)cc1)c1ccccc1S2 [drawing 1580]	82
O=C(NC1CCCCC1)c1ccc2c(c1)N=C(c1cccc(F)c1)c1ccccc1S2 [drawing 1632]	44
O=C(NCc1ccc(F)cc1)c1ccc2c(c1)N=C(c1ccc(Cl)cc1)c1ccccc1S2 [drawing 1630]	83

same assay, conditions: block of CP 55,940-induced hypothermia

SMILES	Hypothermia ID50
CCCCNC(=O)c1ccc2c(c1)N=C(c1ccc(Cl)s1)c1ccccc1S2 [drawing 1568]	2.3 mg/kg
O=C(NCCCC(F)(F)F)c1ccc2c(c1)N=C(c1ccc(Cl)cc1F)c1ccccc1S2 [drawing 1552]	1.3 mg/kg
O=C(NCc1cccs1)c1ccc2c(c1)N=C(c1ccc(Cl)cc1)c1ccccc1S2 [drawing 1628]	0.9 mg/kg
O=C(NCc1ccc(F)cc1)c1ccc2c(c1)N=C(c1ccc(Cl)cc1)c1ccccc1S2 [drawing 1630]	1.8 mg/kg

target: native CB1 receptors (Rattus norvegicus, UniProt P20272); test: CB1 receptor rat binding assay ([3H]SR141716A, rat brain membranes); settings: rat brain membranes, [3H]SR141716A
Sequence (P20272 whole entry): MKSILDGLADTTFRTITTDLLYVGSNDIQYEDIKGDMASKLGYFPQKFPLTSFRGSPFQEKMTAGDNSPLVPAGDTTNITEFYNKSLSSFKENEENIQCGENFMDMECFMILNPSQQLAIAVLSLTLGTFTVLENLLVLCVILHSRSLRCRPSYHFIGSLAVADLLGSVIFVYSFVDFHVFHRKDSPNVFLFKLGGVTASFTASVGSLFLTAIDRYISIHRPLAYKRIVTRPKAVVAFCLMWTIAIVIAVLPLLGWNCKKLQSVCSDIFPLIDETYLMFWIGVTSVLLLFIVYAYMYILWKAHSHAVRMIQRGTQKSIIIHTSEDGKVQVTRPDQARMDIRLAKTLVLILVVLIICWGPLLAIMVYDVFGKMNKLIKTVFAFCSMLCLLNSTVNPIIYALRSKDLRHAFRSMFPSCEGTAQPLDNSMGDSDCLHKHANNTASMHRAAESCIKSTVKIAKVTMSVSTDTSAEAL

Binding rat Inh %	SMILES
98%	Cc1ccsc1C1=Nc2cc(C(=O)NCC(C)C)ccc2Sc2ccccc21 [drawing 1516]
90%	O=C(NC1CCC(F)(F)CC1)c1ccc2c(c1)N=C(c1ccc(Cl)cc1)c1ccccc1S2
73%	O=C(NNC(=O)c1ccc2c(c1)N=C(c1cccc(Br)c1)c1ccccc1S2)c1ccccc1
96%	O=C(NCCc1ccncc1)c1ccc2c(c1)N=C(c1ccc(Cl)cc1)c1ccccc1S2 [drawing 1339]
90%	Cc1ccc(CNC(=O)c2ccc3c(c2)N=C(c2ccc(Cl)cc2F)c2ccccc2S3)o1 [drawing 1441]
98%	O=C(NCCc1cccnc1)c1ccc2c(c1)N=C(c1ccc(Cl)s1)c1ccccc1S2 [drawing 1466]

SMILES	Binding rat Inh %
C[C@@H]1CCC[C@H](C)N1NC(=O)c1ccc2c(c1)N=C(c1cccc(Cl)c1)c1ccccc1S2 [drawing 1526]	73%
CC(C)CNC(=O)c1ccc2c(c1)N=C(c1ccc(Br)cc1)c1ccccc1S2 [drawing 1354]	77%

same assay, conditions: rat brain membranes, [3H]SR141716A; read-out: Binding rat pKi (converted)

Ki	SMILES
79.4 nM	O=C(NN1CCCCC1)c1ccc2c(c1)N=C(c1ccc(Cl)cc1)c1ccccc1O2
10 nM	Cc1ccsc1C1=Nc2cc(C(=O)NCC(C)C)ccc2Sc2ccccc21 [drawing 1516]
2.51 nM	O=C(NC1CCC(F)(F)CC1)c1ccc2c(c1)N=C(c1ccc(Cl)cc1)c1ccccc1S2
100 nM	O=C(NNC(=O)c1ccc2c(c1)N=C(c1cccc(Br)c1)c1ccccc1S2)c1ccccc1
3.16 nM	CC(CNC(=O)c1ccc2c(c1)N=C(C1CCCCC1)c1ccccc1S2)c1ccccc1 (stereo not shown) [drawing 1329]
7.94 nM	O=C(NCc1cccc(Cl)c1)c1ccc2c(c1)N=C(c1ccc(Cl)cc1)c1cc(F)ccc1S2 [drawing 1456]
25.1 nM	O=C(NCCc1ccncc1)c1ccc2c(c1)N=C(c1ccc(Cl)cc1)c1ccccc1S2 [drawing 1339]
7.94 nM	Cc1ccc(CNC(=O)c2ccc3c(c2)N=C(c2ccc(Cl)cc2F)c2ccccc2S3)o1 [drawing 1441]
7.94 nM	O=C(NCCc1cccnc1)c1ccc2c(c1)N=C(c1ccc(Cl)s1)c1ccccc1S2 [drawing 1466]
15.8 nM	O=C(NCc1ccccc1)c1ccc2c(c1)N=C(c1ccccc1)c1ccccc1S2 [drawing 1219]

SMILES	Ki
C[C@@H]1CCC[C@H](C)N1NC(=O)c1ccc2c(c1)N=C(c1cccc(Cl)c1)c1ccccc1S2 [drawing 1526]	10 nM
CC(C)CNC(=O)c1ccc2c(c1)N=C(c1ccc(Br)cc1)c1ccccc1S2 [drawing 1354]	3.98 nM
